Reference: patent US20210161149A1, “METHOD OF CONTROLLING SOIL-BORNE DISEASES OF PLANTS” (NATIONAL AGRICULTURE AND FOOD RESEARCH ORGANIZATION, priority 2018, published 2021)

Key:
[1] = tested on: Pythium ultimum strain MAFF425494; assay: Control of Pythium soil-borne disease in cucumber by a Pseudomonas bacterium combined with an amino acid; assay type: in vivo; conditions: for effect on disease control ability of the Pseudomonas bacterium, averaged cucumber weight (FIG. 2): 10 mM amino acid combined with Pseudomonas protegens strain CHA0, n=12 per group
Experimental: The disease control abilities of a Pseudomonas bacterium and glutamic acid against an infectious disease caused by a Pythium (Pythium ultimum strain MAFF425494) as a soil pathogen were investigated using cucumber as a test plant.
(§1) Cucumber seeds were placed on a filter paper moistened with sterile water and left in darkness at 26° C. for 24 hours. Pseudomonas protegens strain CHA0 was used as a Pseudomonas bacterium and incubated with shaking in NYB medium (nutrient broth 25 g, yeast extract 5 g, H2O 1000 mL) under the conditions of 30° C. and 180 rpm for 24 hours. The broth culture of the Pseudomonas bacterium was centrifuged to remove supernatants, and the precipitate was suspended in sterile water to OD600=0.1.
Vermiculite was moistened by adding water. To the vermiculite, coarse cereal crops (millet) previously infected with a Pythium were added as they were, and mixing was done well. 7 g of the coarse cereal crops infected with a Pythium was added to 1 L of the vermiculite. Some portion of the vermiculite was left without adding the coarse cereal crops infected with a Pythium.
(§2) 50 mL of each prepared vermiculite was equally divided into sections (each 5 cm square and 5 cm deep) of a seedling tray with drainage holes at the bottom for water to drain out. Two grains of cucumber seeds observed to have germinated were seeded on each divided vermiculite.
The Pseudomonas bacterium and glutamic acid were applied to cucumber seeds and soils in their vicinity. To be specific, for each section of the seedling tray, 4 mL of the adjusted solution of the Pseudomonas bacterium was applied to cucumber seeds, and 15 mL of the vermiculite left without being infected with a Pythium was placed over the cucumber seeds. The seedling tray was soaked in water or an aqueous solution of 10 mM glutamic acid (L-glutamic acid) (10 mL per seedling tray section) contained in a vat. The applications of the Pseudomonas bacterium and glutamic acid were carried out within 2 hours after the seeding of cucumber seeds. The interval between the timings of applications of the Pseudomonas bacterium and glutamic acid was ensured to be not exceeding 1 hour.
The seedling tray was kept in a plant incubator set at 25° C. The light and dark periods were set to 16 and 8 hours, respectively. The cultivation period in the incubator was set to 2 weeks. Replacement of water or an aqueous solution of 10 mM glutamic acid in a vat was done every other day.
By using the same procedure as in Example 1, the effectiveness of combined use of the Pseudomonas bacterium with each of glutamic acid and histidine was investigated.
For application of histidine, an aqueous solution of 10 mM histidine (L-histidine) was prepared and used instead of the aqueous solution of glutamic acid used in Example 1. The number of cucumbers cultivated was n=12 for each group. After 2 weeks of cultivation, the weights of cucumbers were measured and averaged. Upon measurement of the weights of cucumbers, it was ensured that the vermiculite remaining on the roots of cucumbers was washed away carefully.
The effects of combined use of a Pseudomonas bacterium with other amino acids than histidine were investigated. In this example, not only glutamic acid (Glu), but also the following other amino acids: glutamine (Gln), glycine (Gly), leucine (Leu), phenylalanine (Phe), arginine (Arg), lysine (Lys), valine (Val), isoleucine (Ile) and tryptophane (Trp), were evaluated by using the same procedure as in Example 1. For each of these amino acids, an aqueous solution of 10 mM amino acid was prepared and used. In this example, Pseudomonas protegens strain Cab57 was used as a Pseudomonas bacterium, and all amino acids used were of the L-form.
The number of cucumbers cultivated in this example was n=12 to 18 for each group. As in Example 2, after 2 weeks of cultivation, the weights of cucumbers were measured and averaged. […]

[2] = tested on: Rhizoctonia solani strain MAFF726551; assay: Control of Rhizoctonia soil-borne disease in cucumber by a Pseudomonas bacterium combined with glutamic acid; assay type: in vivo; conditions: 10 mM glutamic acid combined with Pseudomonas protegens strain Cab57, 5 days cultivation, n=8 to 12
Experimental: as §1, §2
The Pseudomonas bacterium and glutamic acid were applied to cucumber seeds and soils in their vicinity. […]
In this example, by using the same procedure as in Example 1, 1 g of coarse cereal crops infected with the Rhizoctonia was added to 1 L of vermiculite, instead of 7 g of coarse cereal crops infected with a Pythium. […] As in Example 3, for each of the averaged values of the cucumber weights after cultivation calculated for the different groups, a relative value was determined with respect to the averaged value for the group treated with the Pseudomonas bacterium alone, which was taken as 1.

Compound	effect on disease control ability of the Pseudomonas bacterium, averaged cucumber weight (FIG. 2) ([1]; cucumber, 2 weeks)	effect on soil-borne disease control ability of the Pseudomonas bacterium, cucumber weight relative to bacterium alone = 1 (FIG. 5) [2]	effect of combined use on the soil-borne disease control ability of the Pseudomonas bacterium (photograph, FIG. 1) ([1]; cucumber germinated seeds in vermiculite, 10 mM L-glutamic acid combined with Pseudomonas protegens strain CHA0, 2 weeks cultivation)	effect on disease control ability of the Pseudomonas bacterium, cucumber weight relative to bacterium alone = 1 (FIG. 3) ([1]; cucumber, 10 mM L-amino acid combined with Pseudomonas protegens strain Cab57, 2 weeks, n=12 to 18)	soil-borne disease control ability of glutamic acid itself (FIG. 1) ([1]; cucumber, 10 mM L-glutamic acid alone, no Pseudomonas bacterium, 2 weeks cultivation)	effect on disease control ability of the Pseudomonas bacterium, cucumber weight relative to bacterium alone = 1 (FIG. 4) ([1]; cucumber, 10 mM glutamic acid combined with Pseudomonas sp. strain Os17, 2 weeks, n=17)
N[C@@H](Cc1c[nH]cn1)C(=O)O [histidine, L-histidine, reference compound]	did not have a capability of enhancing the disease control ability of the Pseudomonas bacterium	–	–	–	–	–
N[C@@H](CCC(=O)O)C(=O)O [glutamic acid, L-glutamic acid]	enhanced the disease control ability of the bacterium	exhibited similar enhancement of soil-borne disease control ability	enhanced the soil-borne disease control ability of the Pseudomonas bacterium	exhibited a similar effect even on a different strain of Pseudomonas bacterium	seemed not to have a high soil-borne disease control ability	exhibited a similar effect
